Laboratory results taken from US20170050957A1, “4-AMINO-6-(HETEROCYCLIC)PICOLINATES AND 6-AMINO-2-(HETEROCYCLIC)PYRIMIDINE-4-CARBOXYLATES AND THEIR USE AS HERBICIDES” (Dow AgroSciences LLC, priority 2013, published 2017).
Read-outs that look alike come from different tables or passages of the source.

Tests used:
[1] = tested on: Key Grass and Sedge Weeds as well as Grass Crops; assay: Post-emergent Test II herbicidal activity (Table 16); type: in vivo; details: post-emergence, 336 h, 14 days after application; for pest or weed control at 35 g/ha: 35 g ai/ha; for pest or weed control at 70 g/ha: 70 g ai/ha; for pest or weed control at 140 g/ha: 140 g ai/ha
How it was run: (§1)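 Visual injury rating (0 = none, 100 = complete kill) taken 14 d after treatment, relative to untreated plants. Compounds in acetone/DMSO with crop oil concentrate and Triton X-155 were track-sprayed at 187 L/ha onto seedlings at the first-second true leaf stage.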

[2] = tested on: Key Broadleaf Weed and Crop Species; assay: Post-emergent Test II herbicidal activity (Table 15); type: in vivo; details: post-emergence, 336 h, 14 d; for pest or weed control at 35 g/ha: 35 g ai/ha; for pest or weed control at 70 g/ha: 70 g ai/ha; for pest or weed control at 140 g/ha: 140 g ai/ha
How it was run: as §1

[3] = Cyperus esculentus, yellow nutsedge (Cyperus esculentus), read-out: Visual Growth Reduction (%) 14 Days After Application CYPES
[4] = Echinochloa crus-galli, barnyardgrass (Echinochloa crus-galli), read-out: Visual Growth Reduction (%) 14 Days After Application ECHCG
[5] = Oryza sativa, rice (Oryza sativa), read-out: Visual Growth Reduction (%) 14 Days After Application ORYSA
[6] = Setaria faberi, giant foxtail (Setaria faberi), read-out: Visual Growth Reduction (%) 14 Days After Application SETFA
[7] = Triticum aestivum, wheat, spring (Triticum aestivum), read-out: Visual Growth Reduction (%) 14 Days After Application TRZAS
[8] = Zea mays, maize, corn (Zea mays), read-out: Visual Growth Reduction (%) 14 Days After Application ZEAMX
[9] = Abutilon theophrasti, velvetleaf (Abutilon theophrasti), read-out: Visual Growth Reduction (%) 14 Days After Application, ABUTH
[10] = Amaranthus retroflexus, redroot pigweed (Amaranthus retroflexus), read-out: Visual Growth Reduction (%) 14 Days After Application, AMARE
[11] = Brassica napus, oilseed rape, canola (Brassica napus), read-out: Visual Growth Reduction (%) 14 Days After Application, BRSNN
[12] = Chenopodium album, lambsquarters (Chenopodium album), read-out: Visual Growth Reduction (%) 14 Days After Application, CHEAL
[13] = Euphorbia heterophylla, wild poinsettia (Euphorbia heterophylla), read-out: Visual Growth Reduction (%) 14 Days After Application, EPHHL
[14] = Helianthus annuus, sunflower (Helianthus annuus), read-out: Visual Growth Reduction (%) 14 Days After Application, HELAN

| melting point | Structure (SMILES) | pest or weed control at 35 g/ha [1, 3] | pest or weed control at 70 g/ha [1, 3] | pest or weed control at 140 g/ha [1, 3] | pest or weed control at 35 g/ha [1, 4] | pest or weed control at 70 g/ha [1, 4] | pest or weed control at 140 g/ha [1, 4] | pest or weed control at 35 g/ha [1, 5] | pest or weed control at 70 g/ha [1, 5] | pest or weed control at 140 g/ha [1, 5] | pest or weed control at 35 g/ha [1, 6] | pest or weed control at 70 g/ha [1, 6] | pest or weed control at 140 g/ha [1, 6] | pest or weed control at 35 g/ha [1, 7] | pest or weed control at 70 g/ha [1, 7] | pest or weed control at 140 g/ha [1, 7] | pest or weed control at 35 g/ha [1, 8] | pest or weed control at 70 g/ha [1, 8] | pest or weed control at 140 g/ha [1, 8] | pest or weed control at 35 g/ha [2, 9] | other results |
| --- | --- | --- | --- | --- | --- | --- | --- | --- | --- | --- | --- | --- | --- | --- | --- | --- | --- | --- | --- | --- | --- |
| 134 to 136 °C | COc1c(N)nc(-c2ccc3ccsc3c2)nc1C(=O)O [Compound 3.21] | 0 to 29% | 0 to 29% | 0 to 29% | 75 to 84% | 85 to 94% | 85 to 94% | 0 to 29% | 30 to 44% | 30 to 44% | 0 to 29% | 30 to 44% | 60 to 74% | 30 to 44% | 30 to 44% | 45 to 59% | 30 to 44% | 60 to 74% | 75 to 84% | 0 to 29% | pest or weed control at 70 g/ha [2, 9]: 30 to 44%; pest or weed control at 140 g/ha [2, 9]: 45 to 59%; pest or weed control at 35 g/ha [2, 10]: 95 to 100%; pest or weed control at 70 g/ha [2, 10]: 95 to 100%; pest or weed control at 140 g/ha [2, 10]: 95 to 100%; pest or weed control at 35 g/ha [2, 11]: 75 to 84%; pest or weed control at 70 g/ha [2, 11]: 85 to 94%; pest or weed control at 140 g/ha [2, 11]: 95 to 100%; pest or weed control at 35 g/ha [2, 12]: 85 to 94%; pest or weed control at 70 g/ha [2, 12]: 85 to 94%; pest or weed control at 140 g/ha [2, 12]: 95 to 100%; pest or weed control at 35 g/ha [2, 13]: 75 to 84%; pest or weed control at 70 g/ha [2, 13]: 85 to 94%; pest or weed control at 140 g/ha [2, 13]: 95 to 100%; pest or weed control at 35 g/ha [2, 14]: 60 to 74%; pest or weed control at 70 g/ha [2, 14]: 60 to 74%; pest or weed control at 140 g/ha [2, 14]: 75 to 84% |
| 168 °C | COC(=O)c1nc(-c2cc3sccc3cc2F)nc(N)c1OC [Compound 3.22] | 0 to 29% | 0 to 29% | 0 to 29% | 0 to 29% | 0 to 29% | 0 to 29% | 0 to 29% | 0 to 29% | 0 to 29% | 0 to 29% | 0 to 29% | 0 to 29% | 0 to 29% | 0 to 29% | 0 to 29% | 0 to 29% | 0 to 29% | 0 to 29% | 0 to 29% | pest or weed control at 70 g/ha [2, 9]: 0 to 29%; pest or weed control at 140 g/ha [2, 9]: 0 to 29%; pest or weed control at 35 g/ha [2, 10]: 60 to 74%; pest or weed control at 70 g/ha [2, 10]: 95 to 100%; pest or weed control at 140 g/ha [2, 10]: 95 to 100%; pest or weed control at 35 g/ha [2, 11]: 0 to 29%; pest or weed control at 70 g/ha [2, 11]: 30 to 44%; pest or weed control at 140 g/ha [2, 11]: 60 to 74%; pest or weed control at 35 g/ha [2, 12]: 60 to 74%; pest or weed control at 70 g/ha [2, 12]: 75 to 84%; pest or weed control at 140 g/ha [2, 12]: 85 to 94%; pest or weed control at 35 g/ha [2, 13]: 95 to 100%; pest or weed control at 70 g/ha [2, 13]: 95 to 100%; pest or weed control at 140 g/ha [2, 13]: 95 to 100%; pest or weed control at 35 g/ha [2, 14]: 75 to 84%; pest or weed control at 70 g/ha [2, 14]: 85 to 94%; pest or weed control at 140 g/ha [2, 14]: 85 to 94% |
| 219 to 221 °C | COC(=O)c1nc(-c2cccc3sccc23)c(F)c(N)c1Cl [Compound 3.23] | 0 to 29% | 0 to 29% | 0 to 29% | 0 to 29% | 0 to 29% | 0 to 29% | 0 to 29% | 0 to 29% | 0 to 29% | 0 to 29% | 0 to 29% | 0 to 29% | 0 to 29% | 0 to 29% | 0 to 29% | 0 to 29% | 0 to 29% | 0 to 29% | 0 to 29% | pest or weed control at 70 g/ha [2, 9]: 0 to 29%; pest or weed control at 140 g/ha [2, 9]: 0 to 29%; pest or weed control at 35 g/ha [2, 10]: 0 to 29%; pest or weed control at 70 g/ha [2, 10]: 0 to 29%; pest or weed control at 140 g/ha [2, 10]: 0 to 29%; pest or weed control at 35 g/ha [2, 11]: 0 to 29%; pest or weed control at 70 g/ha [2, 11]: 0 to 29%; pest or weed control at 140 g/ha [2, 11]: 0 to 29%; pest or weed control at 35 g/ha [2, 12]: 0 to 29%; pest or weed control at 70 g/ha [2, 12]: 45 to 59%; pest or weed control at 140 g/ha [2, 12]: 85 to 94%; pest or weed control at 35 g/ha [2, 13]: 0 to 29%; pest or weed control at 70 g/ha [2, 13]: 0 to 29%; pest or weed control at 140 g/ha [2, 13]: 0 to 29%; pest or weed control at 35 g/ha [2, 14]: 0 to 29%; pest or weed control at 70 g/ha [2, 14]: 0 to 29%; pest or weed control at 140 g/ha [2, 14]: 0 to 29% |
